Measurements taken from paper PMC6479981, “Design, Synthesis, and In Vitro Biological Activities of a Bio-Oxidizable Prodrug to Deliver Both ChEs and DYRK1A Inhibitors for AD Therapy” (Molecules, 2019).
Where two headings read alike, the source gives them in different places.

Experiments:
hBuChE [1] = biological target: T1, hBuChE (Homo sapiens, UniProt P06276); assay: biochemical; type: biochemical
T1 construct: purchased Aldrich
Description: (§1) Inhibitory capacity of compounds on hAChE and hBuChE biological activity was evaluated through the use of Ellman’s spectrometric method. Acetylthiocholine iodide (ATCI), […] (BTCI) and 5,5-dithiobis-(2-nitrobenzoic) acid (DTNB) were purchased from Sigma Aldrich. Lyophilized hAChE and hBuChE were purchased from Aldrich, and were diluted in phosphate buffer (pH 8) so as to give an enzyme solution with 0.25 units/mL enzyme activity. In the procedure, 100 μL of 0.3 mM DTNB dissolved in phosphate buffer pH 7.4 were added into the 96 well plate, followed by 50 μL of the tested compound solution and 50 μL of enzyme solution. After 5 min of preincubation, the reaction was then initiated by the injection of 50 μL of 10 mM ATCI or BTCI solution. […] All assays were performed in duplicate, and IC50 values were determined graphically from 8 points inhibition curves using the Prism® software.

hAChE [2] = biological target: T2, hAChE (Homo sapiens, UniProt P22303); assay: biochemical; type: biochemical
T2 construct: purchased Aldrich
Description: as §1

human recombinant DYRK1A = biological target: T3, human recombinant DYRK1A (Homo sapiens, UniProt Q13627); assay: biochemical; settings: for inhibition at 1 µM: read-out: DYRK1a Inhibition (%)
T3 construct: Eurofins Pharma Discovery (ran the assay)
Description: Evaluation of the effects of compounds on the activity of the human recombinant DYRK1A was made using the LANCE® detection method, and was quantified by measuring the phosphorylation of Ulight-[…]-amide (MBP). The assays were conducted by Eurofins Pharma Discovery in Bois l’Evêque, France. […] Next, 100 nM of Ulight-[…]-amide (MBP) and 10 µM ATP were added to initiate the reaction, and the mixture was incubated for 30 min at 25 °C. A blank without enzyme was also performed for control basal measurements. The experiment was stopped by addition of 13 mM EDTA, followed by the addition of the anti-phospho-MBP antibody labeled with europium chelate after 5 min. […] Outputs are expressed as a percentage of inhibition of the control DYRK1A activity.

[3] = biological target: T4, peripheral binding site of eeAChE (Electrophorus electricus, UniProt O42275); assay: Propidium iodide displacement (competition) assay
T4 construct: purchased Aldrich
Description: The assays were performed at the Centre d’Etudes et de Recherche sur le Médicament de Normandie (CERMN) in Caen, France. […] Fluorescence intensity was monitored using a microplate reader. […] Each assay was performed in triplicate.

[4] = PAMPA-BBB permeability assay; type: in vitro ADME; settings: pH 7.4, 4 h, room temperature
Description: Assays were performed at the Centre d’Etudes et de Recherche sur le Médicament de Normandie (CERMN) in Caen, France. These assays were realized according to the methodology developed by PION, by means of the Pampa-BBB Explorer™ system. This system allows the measurement of the crossing velocity of a compound from one compartment to another through an artificial membrane at pH = 7.4. The experiment was replicated 6 times in 4 h, with quantification by UV-spectra reading. The result is given in Pe [cm·s^−1], and an interpretation by comparison with standard compounds is proposed. The studied compounds were diluted at 20 mM in DMSO, then diluted at […] in Prisma HT Buffer pH 7.4 (pION). 200 µL of this solution was placed in the wells of the donor plate. 5 μL of BBB-1 Lipid was placed in the filters of the acceptor plate. 200 µL of Brain Sink Buffer was added in the wells of the acceptor plate. The sandwich was then assembled and incubated for 4 h at room temperature, without stirring. The sandwich was then separated and the UV-vis spectra of the donor and acceptor compartments were determined with the plate reader (Tecan infinite M200, Männedorf, Switzerland). Pe were calculated with the PAMPA Explorer software v.3.7 (pION Inc, Billerica, MA, USA). Standard compounds used were corticosterone and theophylline.

hAChE [5] = biological target: T2, hAChE; assay: Time-dependent (stopped time) kinetic study of hAChE inhibition; type: biochemical
Description: (§2) To support the assumption of the pseudo-irreversible inhibition mechanism of both ChEs by compound 14, kinetic studies were also performed using stopped time assays at different concentrations of ligand 14. […] Using a nonlinear regression fitting analysis, the pseudo-first-order inhibition rate constant (kobs) for each concentration of 14 was obtained and the equilibrium constant (Kc) and the carbamoylation rate constant (k3) was determined by the reported method.
(§3) For the time-dependent experiments, assays were performed using a 96 well microplate reader to a final volume of 250 μL, a final enzyme concentration of 0.05 U·mL^−1 and an ATCI (or BTCI) and DNTB concentrations of 0.3 and 0.5 mM respectively in phosphate buffer (pH 8). At the starting time (t0), the inhibitor at various concentration (150 μL) was added to an equivalent volume of hAChE (or hBuChE). The mixture was then incubated at 37 °C and, at different time points, 50 μL aliquots were transferred to wells containing a solution of ATCI (or BTCI) and DTNB in phosphate buffer (200 μL) and the activity was determined by measuring the changes in absorbance at 412 nm every minute for 10 min. Blank experiments were also performed without inhibitor. The first order inhibition constant kobs was determined for all inhibitor concentrations using a nonlinear regression. Data were fitted with the equation, A = A0 exp(−kobs·t) + A∞ with A, A0, A∞ being ratios of the inhibited enzyme activity to the control activity at time t, 0, and ∞. Double reciprocal plots of kobs versus the inhibitor concentration were made to determine the equilibrium constant Kc and the carbamoylation rate constant k3, following the described method.

hBuChE [6] = biological target: T1, hBuChE; assay: Time-dependent (stopped time) kinetic study of hBuChE inhibition; type: biochemical
Description: as §2, §3

[7] = mean value of duplicate, 5 min preincubation, read-out: IC50 hBuChE
[8] = mean value of duplicate, 5 min preincubation, read-out: IC50 hAChE
[9] = at 1 μM compound, 10 μM ATP concentration, mean value of duplicate

T2 sequence (P22303 32-614): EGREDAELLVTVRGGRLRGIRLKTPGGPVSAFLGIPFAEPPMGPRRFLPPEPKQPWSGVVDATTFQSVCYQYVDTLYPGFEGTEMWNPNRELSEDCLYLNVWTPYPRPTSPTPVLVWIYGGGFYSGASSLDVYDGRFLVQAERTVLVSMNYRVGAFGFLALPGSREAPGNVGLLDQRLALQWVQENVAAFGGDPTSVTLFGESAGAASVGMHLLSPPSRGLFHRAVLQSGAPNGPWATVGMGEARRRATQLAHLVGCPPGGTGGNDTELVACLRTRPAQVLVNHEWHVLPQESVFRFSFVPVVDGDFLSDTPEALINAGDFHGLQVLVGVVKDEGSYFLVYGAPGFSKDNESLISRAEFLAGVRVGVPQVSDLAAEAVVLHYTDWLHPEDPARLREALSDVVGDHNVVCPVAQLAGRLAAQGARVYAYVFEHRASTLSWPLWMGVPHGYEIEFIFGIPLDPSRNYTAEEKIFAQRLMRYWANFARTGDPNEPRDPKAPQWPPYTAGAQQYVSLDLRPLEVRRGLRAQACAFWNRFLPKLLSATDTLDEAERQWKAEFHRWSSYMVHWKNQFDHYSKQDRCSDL
T1 sequence (P06276 29-602): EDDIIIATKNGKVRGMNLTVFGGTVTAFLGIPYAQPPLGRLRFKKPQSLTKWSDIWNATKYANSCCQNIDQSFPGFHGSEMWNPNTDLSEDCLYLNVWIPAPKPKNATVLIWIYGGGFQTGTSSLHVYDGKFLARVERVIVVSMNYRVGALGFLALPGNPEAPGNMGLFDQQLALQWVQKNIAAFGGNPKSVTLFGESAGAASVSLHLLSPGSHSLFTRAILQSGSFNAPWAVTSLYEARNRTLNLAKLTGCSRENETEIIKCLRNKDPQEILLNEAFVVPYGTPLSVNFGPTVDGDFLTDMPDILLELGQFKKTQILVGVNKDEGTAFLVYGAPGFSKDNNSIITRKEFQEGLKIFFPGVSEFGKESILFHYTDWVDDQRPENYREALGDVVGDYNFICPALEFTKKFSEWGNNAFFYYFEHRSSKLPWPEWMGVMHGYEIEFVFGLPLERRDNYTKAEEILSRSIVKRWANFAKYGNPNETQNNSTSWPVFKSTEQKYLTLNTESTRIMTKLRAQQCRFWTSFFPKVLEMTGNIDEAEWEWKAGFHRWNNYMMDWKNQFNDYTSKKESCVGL
T4 sequence (O42275 24-633): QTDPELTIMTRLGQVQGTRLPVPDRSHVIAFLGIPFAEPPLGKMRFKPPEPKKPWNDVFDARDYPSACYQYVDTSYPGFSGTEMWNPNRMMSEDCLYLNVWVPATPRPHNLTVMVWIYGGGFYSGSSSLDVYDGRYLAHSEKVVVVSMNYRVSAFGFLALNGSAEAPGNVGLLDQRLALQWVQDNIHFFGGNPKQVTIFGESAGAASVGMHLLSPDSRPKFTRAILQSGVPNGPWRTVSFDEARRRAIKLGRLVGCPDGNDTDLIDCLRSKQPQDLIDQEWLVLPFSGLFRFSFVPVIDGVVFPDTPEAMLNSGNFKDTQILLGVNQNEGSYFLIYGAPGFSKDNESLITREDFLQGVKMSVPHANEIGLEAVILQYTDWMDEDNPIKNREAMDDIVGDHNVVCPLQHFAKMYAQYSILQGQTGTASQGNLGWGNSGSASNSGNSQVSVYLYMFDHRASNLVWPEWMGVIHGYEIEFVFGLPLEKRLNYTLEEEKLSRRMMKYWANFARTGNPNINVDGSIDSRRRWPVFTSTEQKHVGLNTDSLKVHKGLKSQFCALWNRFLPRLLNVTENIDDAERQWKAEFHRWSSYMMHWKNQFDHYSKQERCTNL

**Q.** Which IC50 (hBuChE [1]; [7]) does the source give for `CCN1/C(=C/C(C)=O)Sc2ccc(O)cc21` [Indy, reference compound] here?
**A.** > 10000 nM

**Q.** And the IC50 (hAChE [2]; [8])?
**A.** > 10000 nM

**Q.** For `CCN1/C(=C/C(C)=O)Sc2ccc(OC(=O)OCCOCCNC(=O)c3cc4ccccc4[n+](C)c3)cc21.COS(=O)(=O)[O-]` [compound 15, (Z)-3-((2-(2-((((3-Ethyl-2-(2-oxopropylidene)-2,3-dihydrobenzo[d]thiazol-5-yl)oxy)carbonyl)oxy)ethoxy)ethyl)carbamoyl)-1-methylquinolin-1-ium methyl sulfate], which “inhibitory activity against hBuChE (in words)” value (hBuChE [1]) is on record?
**A.** did not show any significant inhibitory activity

**Q.** And the IC50 (hBuChE [1]; [7])?
**A.** 6400 ± 714 nM

**Q.** What about the “inhibitory activity against hAChE (in words)” value (hAChE [2]) of the same molecule?
**A.** did not show any significant inhibitory activity

**Q.** And the IC50 (hAChE [2]; [8])?
**A.** > 10000 nM

**Q.** And the “DYRK1a Inhibition (%)” value (human recombinant DYRK1A; [9])?
**A.** 6%

**Q.** With `CCN1/C(=C/C(C)=O)Sc2ccc(OC(=O)OCCOCCNC(=O)C3=CN(C)c4cccc(OC(=O)N(C)C)c4C3)cc21` [compound 4, (Z)-3-((2-(2-((((3-Ethyl-2-(2-oxopropylidene)-2,3-dihydrobenzo[d]thiazol-5-yl)oxy)carbonyl)oxy)ethoxy)ethyl)carbamoyl)-1-methyl-1,4-dihydroquinolin-5-yl dimethylcarbamate] as the molecule, how does the IC50 (hBuChE [1]) read?
**A.** 961 ± 22 nM

**Q.** What about the IC50 (hAChE [2]) of the same molecule?
**A.** 1020 ± 72.1 nM

**Q.** And the inhibition at 1 µM (human recombinant DYRK1A)?
**A.** 8%

**Q.** What about the inhibition at 10 µM ([3]; read-out: Propidium Iodide Displacement Inhibition (%)) of the same molecule?
**A.** 4 ± 2%

**Q.** And the Papp at 4 h ([4]; PAMPA, read-out: Pe (PAMPA BBB, passive diffusion))?
**A.** 2.41 ×10⁻⁶ cm/s

**Q.** Which results are given for `CCN1/C(=C/C(C)=O)Sc2ccc(OC(=O)OCCOCCNC(=O)c3cc4c(OC(=O)N(C)C)cccc4[n+](C)c3)cc21.COS(=O)(=O)[O-]` [compound 14, (Z)-5-((Dimethylcarbamoyl)oxy)-3-((2-(2-((((3-ethyl-2-(2-oxopropylidene)-2,3-dihydrobenzo[d]thiazol-5-yl)oxy)carbonyl)oxy)ethoxy)ethyl)carbamoyl)-1-methylquinolin-1-ium methyl sulfate]?
**A.** carbamoylation rate constant k3 (hAChE [5]): 0.408 min⁻¹; second order rate constant Ki (k3/Kc), carbamylation efficacy (hAChE [5]): 29700 M⁻¹ s⁻¹; Kd (hAChE [5]; 37 °C, double reciprocal plot of kobs vs inhibitor concentration, read-out: equilibrium constant Kc): 230 nM; carbamoylation rate constant k3 (hBuChE [6]; hBChE): 0.574 min⁻¹; Kd (hBuChE [6]; hBChE, 37 °C, double reciprocal plot of kobs vs inhibitor concentration, read-out: equilibrium constant Kc): 659 nM; second order rate constant Ki (k3/Kc), carbamylation efficacy (hBuChE [6]; hBuChE): 14500 M⁻¹ s⁻¹; IC50 (hBuChE [1]; [7]): 482 ± 21 nM; IC50 (hAChE [2]; [8]): 81.4 ± 0.4 nM; DYRK1a Inhibition (%) (human recombinant DYRK1A; [9]): 5%; Propidium Iodide Displacement Inhibition (%) ([3]; compound 10^−5 M, eeAChE, propidium iodide 1 μM, mean value of triplicate): 26 ± 1%; Pe (PAMPA BBB, passive diffusion) [4]: 0 ×10⁻⁶ cm/s

**Q.** With `CN(C)C(=O)Oc1cccc2c1cc(C(=O)NCCO)c[n+]2C` [2a, reference compound] as the molecule, how does the IC50 (hBuChE [1]) read?
**A.** 1440 ± 286 nM

**Q.** And the IC50 (hAChE [2])?
**A.** 37.1 ± 0.1 nM

**Q.** What about the inhibition at 1 µM (human recombinant DYRK1A) of the same molecule?
**A.** 0%

**Q.** Which IC50 (hBuChE [1]; [7]) does the source give for `CCN1/C(=C/C(C)=O)Sc2ccc(OC(=O)OCCOCCNC(=O)C3=CN(C)c4ccccc4C3)cc21` [compound 16, (Z)-3-Ethyl-2-(2-oxopropylidene)-2,3-dihydrobenzo[d]thiazol-5-yl (2-(2-(1-methyl-1,4-dihydroquinoline-3-carboxamido)ethoxy)ethyl) carbonate] here?
**A.** > 10000 nM

**Q.** What about the IC50 (hAChE [2]; [8]) of the same molecule?
**A.** > 10000 nM

**Q.** And the inhibition at 1 µM (human recombinant DYRK1A; [9])?
**A.** 7%
